What was measured:
[1] = Stability of the particles in 0.1 N hydrochloric acid solution, HPLC assay; type: physicochemical; conditions: 0.1 N HCl medium at 25° C., 500 ml, 20 mg of BZ, 120 minutes of incubation; percentage of the initial dose
Protocol: Measurement of the stability of the particles in 0.1 N hydrochloric acid solution, via an HPLC assay method: • Column (ProntoSlL, Bischoff, Germany): C18, 5 μm, 120 Å, 4.6×150 mm, • Mobile phase: methanol, 65%/10 mM Na2HPO4, 35%, • Flow rate: 1.00 mL/min, • Temperature: 20° C. (thermostat), • Detection: UV (λ=310 nm) • Injection volume: 20 μL.
The stability is measured in 0.1 N HCl medium at 25° C., for a volume of 500 ml and 20 mg of BZ. The results collated in FIG. 2 are expressed as a percentage of the initial dose.

[2] = Test of gastroprotection and preliminary bioavailability on animals (oral administration); conditions: rat, in vivo, fasted male Sprague-Dawley rats, 40 mg/kg of BZ
Protocol: Test of gastroprotection and preliminary bioavailability on animals. In this test, the protective capacity of the BZ-AT formulation according to the invention as described in this example and of an unprotected form of BZ are compared.
Each formulation is administered orally to male Sprague-Dawley rats weighing between 175-250 g. Tests are performed with pure BZ and the BZ-AT form taken up at 10 mg/ml in the following aqueous solution:
The volume that may be administered is adjusted as a function of each animal to enable a dose of 4 mL/kg to be achieved, i.e. 40 mg/kg of BZ. The administration is performed orally on the fasted animal.

Work on COCCCOc1ccnc(C[S+]([O-])c2nc3ccccc3[nH]2)c1C (stereo not shown) [BZ, 2-([4-(3-methoxypropoxy)-3-methylpyridin-2-yl]methylsulfinyl)-1H-benzo[d]imidazole] yielded a degradation [1] of 100%, an AUC [2] of less than 5 ng·h/mL and a Cmax [2] of 2.54 ng/mL. For the same compound, the Tmax [2] was 48 min.

From US20210161877A1, “GASTROPROTECTED, HYDROPHOBIC FORMULATION OF AT LEAST ONE ACTIVE PRINCIPLE AND METHOD FOR OBTAINING SAME” (priority 2018, published 2021)
